One test deals with RL95-2 cells. The test is described as follows: Inhibition of RL95-2 cell proliferation (CellTiter-Glo). In kind it is cell-based. The settings on record: Homo sapiens; RL95-2 cells (MSI-H), 120 hours. The method, then: The following method was used to determine the effect of the compounds of the present disclosure on RL95-2 cell proliferation. RL95-2 cells (MSI-H cells) were purchased from Cell Resource Center of Shanghai Institutes for Biological Sciences, Chinese Academy of Sciences, and cultured in DMEM/F12 medium (Gibco, catalog No. A4192001) containing 10% fetal bovine serum, 100 U penicillin, and 100 µg/mL streptomycin. Cell viability was determined by CellTiter-Glo® Luminescent Cell Viability Assay kit (Promega, catalog No. G7573).
The experiment was performed according to the steps of the kit manual, which is briefly described as follows: test compounds were first dissolved in DMSO to prepare 10 mM stock solutions, and then diluted with medium to prepare test samples, with final compound concentrations ranging from 10000 nM to 1.52 nM. Cells in logarithmic growth phase were seeded into 96-well cell culture plates at a density of 500 cells per well and cultured overnight at 37 °C in a 5% CO2 incubator, and then test compounds were added and cultivation continued for 120 hours. After the cultivation was completed, 50 µL of CellTiter-Glo detection reagent was added to each well, shaken for 5 minutes, and then left to stand for 10 minutes. Luminescence values of each well were read on a microplate reader using Luminescence mode. The percentage inhibition at each concentration point was calculated by comparison with the control group (0.1% DMSO), and then IC50 values for the compounds for inhibition of cell proliferation were obtained using nonlinear regression analysis of compound concentration logarithm versus inhibition rate in GraphPad Prism 9 software, as shown in Table 3.
The IC50 value results of the compounds of the present disclosure are represented by A, wherein "A" indicates 1 nM < IC50 ≤ 100 nM. Table 3 IC50 data for inhibition of RL95-2 cell proliferation by the compounds of the present disclosure
Background: ATP-based viability assays read luminescence as a measure of living cells.

The target in the next test is T1, recombinant human WRN (Homo sapiens, UniProt Q14191).
T1 construct: purchased BPS 101264
T1 sequence (Q14191 whole entry): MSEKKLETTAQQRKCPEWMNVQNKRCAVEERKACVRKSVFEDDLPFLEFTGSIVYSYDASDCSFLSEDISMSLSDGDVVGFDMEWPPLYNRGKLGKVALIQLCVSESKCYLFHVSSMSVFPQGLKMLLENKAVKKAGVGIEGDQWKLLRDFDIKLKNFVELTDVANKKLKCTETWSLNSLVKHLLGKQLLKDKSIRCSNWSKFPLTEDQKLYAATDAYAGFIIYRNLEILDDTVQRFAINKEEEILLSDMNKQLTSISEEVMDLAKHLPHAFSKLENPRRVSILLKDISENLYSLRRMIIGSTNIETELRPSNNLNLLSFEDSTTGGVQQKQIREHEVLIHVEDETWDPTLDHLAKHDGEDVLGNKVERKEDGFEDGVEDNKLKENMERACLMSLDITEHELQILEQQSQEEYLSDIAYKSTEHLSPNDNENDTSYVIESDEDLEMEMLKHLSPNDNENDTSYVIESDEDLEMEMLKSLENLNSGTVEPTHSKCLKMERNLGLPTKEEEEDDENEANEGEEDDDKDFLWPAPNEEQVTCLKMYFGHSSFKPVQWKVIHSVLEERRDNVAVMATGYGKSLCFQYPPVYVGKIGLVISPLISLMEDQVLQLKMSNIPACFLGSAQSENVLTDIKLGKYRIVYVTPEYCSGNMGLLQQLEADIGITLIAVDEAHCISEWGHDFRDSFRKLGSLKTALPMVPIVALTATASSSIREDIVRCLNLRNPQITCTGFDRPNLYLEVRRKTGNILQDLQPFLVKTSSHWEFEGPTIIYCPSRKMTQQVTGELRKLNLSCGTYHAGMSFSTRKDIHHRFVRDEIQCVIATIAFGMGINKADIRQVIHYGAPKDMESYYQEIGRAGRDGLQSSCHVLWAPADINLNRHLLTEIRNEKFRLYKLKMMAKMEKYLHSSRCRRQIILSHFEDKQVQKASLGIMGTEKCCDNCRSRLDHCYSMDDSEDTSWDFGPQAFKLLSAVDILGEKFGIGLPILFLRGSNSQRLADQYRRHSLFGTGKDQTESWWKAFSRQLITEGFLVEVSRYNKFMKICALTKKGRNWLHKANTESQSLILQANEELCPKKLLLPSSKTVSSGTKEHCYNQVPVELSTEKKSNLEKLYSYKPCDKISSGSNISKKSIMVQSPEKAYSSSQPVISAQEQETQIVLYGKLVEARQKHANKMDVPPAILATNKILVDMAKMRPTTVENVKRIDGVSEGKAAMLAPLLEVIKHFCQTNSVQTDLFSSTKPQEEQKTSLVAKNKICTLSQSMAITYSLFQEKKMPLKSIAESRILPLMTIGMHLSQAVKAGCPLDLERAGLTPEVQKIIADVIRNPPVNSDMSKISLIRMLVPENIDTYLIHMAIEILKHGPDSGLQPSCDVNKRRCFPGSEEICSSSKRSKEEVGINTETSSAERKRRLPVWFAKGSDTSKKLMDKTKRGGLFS
The test is described as follows: Inhibition of WRN enzyme activity (ATPase), ADP-Glo Kinase Assay. The settings on record: WRN protein 5 nM, Flap 0.1 nM, ATP 30 µM. It is filed as biochemical. The gist of the method: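 Recombinant human WRN (5 nM) was preincubated with compound (1000–0.004 nM) for 15 min at room temperature. Flap26 5'-flap DNA (0.1 nM) and 30 µM ATP were then added for 10 min in Tris pH 7.5, MgCl2, NaCl, BSA, Pluronic buffer. ADP was detected by ADP-Glo luminescence, and IC50 was obtained by nonlinear regression versus a 0.1% DMSO control.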
On the technique in general: ADP-Glo first removes unused ATP, then detects ADP through luciferase.

Structures are written as SMILES. Like-named read-outs stand apart in the source and are kept apart here. A value given as a limit tells only on which side of the number the result lay.

For orientation: IC50 means the concentration that inhibits the measured activity by half. Take `CCc1c(N2CCN(C(=O)c3ncnc(C)c3O)CC2)c(=O)n2nc(C3=CCCCOC3)nc2n1CC(=O)Nc1ccc(C(F)(F)F)cc1Cl` [Example 62, N-(2-chloro-4-(trifluoromethyl)phenyl)-2-(5-ethyl-6-(4-(5-hydroxy-6-methylpyrimidine-4-carbonyl)piperazin-1-yl)-7-oxo-2-(2,5,6,7-tetrahydrooxepin-3-yl)-[1,2,4]triazolo[1,5-a]pyrimidin-4(7H) -yl)acetamide]: the IC50 with RL95-2 cells and on recombinant human WRN (read-out: IC50) was 1 to 100 nM each time. Regarding `CCc1c(N2CCN(C(=O)c3ncnc(C)c3O)CC2)c(=O)n2nc(C3=CCCCOC3)nc2n1CC(=O)Nc1ccc(S(F)(F)(F)(F)F)cc1` [Example 63, 2-(5-ethyl-6-(4-(5-hydroxy-6-methylpyrimidine-4-carbonyl)piperazin-1-yl)-7-oxo-2-(2,5,6,7-tetra hydrooxepin-3-yl)-[1,2,4]triazolo[1,5-a]pyrimidin-4(7H)-yl)-N-(4-(pentafluoro-λ^6-sulfaneyl)phenyl)acetamide], the IC50 in the test with RL95-2 cells and on recombinant human WRN (read-out: IC50) was 1 to 100 nM throughout. For the molecule `CCc1c(N2CCN(C(=O)c3ncnc(C)c3O)CC2)c(=O)n2nc(C3=CCC4(CC3)COC4)nc2n1CC(=O)Nc1ccc(C(F)(F)F)cc1Cl` [Example 65, N-(2-chloro-4-(trifluoromethyl)phenyl)-2-(5-ethyl-6-(4-(5-hydroxy-6-methylpyrimidine-4-carbonyl)piperazin-1-yl)-7-oxo-2-(2-oxaspiro[3.5]non-6-en-7-yl)-[1,2,4]triazolo[1,5-a]pyrimidin-4(7H)-yl)acetamide], the IC50 with RL95-2 cells and on recombinant human WRN (read-out: IC50) was 1 to 100 nM in each case. As for `CCc1c(N2CCN(C(=O)c3ncnc(C)c3O)CC2)c(=O)n2nc(C3=CC4CC4C3)nc2n1CC(=O)Nc1ccc(S(F)(F)(F)(F)F)cc1` (centres unmarked) [Example 66, 2-(2-(Bicyclo[3.1.0]hex-2-en-3-yl)-5-ethyl-6-(4-(5-hydroxy-6-methylpyrimidine-4-carbonyl)piperazin-1-yl)-7-oxo-[1,2,4]triazolo[1,5-a]pyrimidin-4(7H)-yl)-N-(4-(pentafluoro-λ^6-thiol)phenyl)acetamide], the values for the IC50 in the test on RL95-2 cells and on recombinant human WRN (read-out: IC50) were 1 to 100 nM and under 1 nM, respectively. In the same order, the values of `CCc1c(N2CCN(C(=O)c3ncnc(C)c3O)CC2)c(=O)n2nc(-c3cccc4ccoc34)nc2n1CC(=O)Nc1ccc(C(F)(F)F)cc1Cl` [Example 69, 2-(2-(benzofuran-7-yl)-5-ethyl-6-(4-(5-hydroxy-6-methylpyrimidine-4-carbonyl)piperazin-1-yl)-7-oxo-[1,2,4]triazolo[1,5-a]pyrimidin-4(7H)-yl)-N-(2-chloro-4-(trifluoromethyl)phenyl)acetamide] are 1 to 100 nM and under 1 nM. Consider `CCc1c(N2CCN(C(=O)c3ncnc(C)c3O)CC2)c(=O)n2nc(C3=CCCCCC3)nc2n1CC(=O)Nc1ccc(S(F)(F)(F)(F)F)cc1Cl` [Example 70, N-(2-chloro-4-(pentafluoro-λ^6-sulfaneyl)phenyl)-2-(2-(cyclohept-1-en-1-yl)-5-ethyl-6-(4-(5-hydroxy-6-methylpyrimidine-4-carbonyl)piperazin-1-yl)-7-oxo-[1,2,4]triazolo[1,5-a]pyrimidin-4(7H) -yl)acetamide], for which the IC50 in the test on RL95-2 cells and at recombinant human WRN (read-out: IC50) was 1 to 100 nM throughout. In the case of `CCc1c(N2CCN(C(=O)c3ncccc3O)CC2)c(=O)n2nc(C3=CC4CC(=O)CC4C3)nc2n1CC(=O)Nc1ccc(S(F)(F)(F)(F)F)cc1` (centres unmarked) [Example 71, 2-(5-ethyl-6-(4-(3-hydroxypicolinoyl)piperazin-1-yl)-7-oxo-2-(5-oxo-1,3a,4,5,6,6a-hexahydropentalen-2-yl)-[1,2,4]triazolo[1,5-a]pyrimidin-4(7H)-yl)-N-(4-(pentafluoro-λ^6-sulfaneyl)phenyl)acetamide], the figures for the IC50 in the test with RL95-2 cells and at recombinant human WRN (read-out: IC50) were 1 to 100 nM and under 1 nM, respectively.

For the molecule `CCc1c(N2CCN(C(=O)c3ncnc(C)c3O)CC2)c(=O)n2nc(-c3ccc4c(c3)CN(CC(F)(F)F)CCO4)nc2n1CC(=O)Nc1ccc(C(F)(F)F)cc1Cl` [Example 180, N-(2-chloro-4-(trifluoromethyl)phenyl)-2-(5-ethyl-6-(4-(5-hydroxy-6-methylpyrimidine-4-carbonyl)piperazin-1-yl)-7-oxo-2-(4-(2,2,2-trifluoroethyl)-2,3,4,5-tetrahydrobenzo[f][1,4]oxazepin-7-yl) -[1,2,4]triazolo[1,5-a]pyrimidin-4(7H)-yl)acetamide], at recombinant human WRN (read-out: IC50), the IC50 was in the range of 1 to 100 nM. Turning to `[2H]C([2H])([2H])Sc1ccc(NC(=O)Cn2c(CC)c(N3CCN(C(=O)c4ncnc(C)c4O)CC3)c(=O)n3nc(C4=CC5CC5C4)nc23)cc1` (centres unmarked) [Example 181, 2-(2-(Bicyclo[3.1.0]hex-2-en-3-yl)-5-ethyl-6-(4-(5-hydroxy-6-methylpyrimidine-4-carbonyl)piperazin-1-yl)-7-oxo-[1,2,4]triazolo[1,5-a]pyrimidin-4(7H)-yl)-N-(4-((methyl-d3)thio)phenyl)acetamide], at recombinant human WRN (read-out: IC50), the IC50 lay within 1 to 100 nM. For the molecule `CCc1c(N2CCN(C(=O)c3ncnc(C)c3O)CC2)c(=O)n2nc(/C=C/C(=O)N(C)C)nc2n1CC(=O)Nc1ccc(C(F)(F)F)cc1Cl` [Example 182, (E)-3-(4-(2-((2-chloro-4-(trifluoromethyl)phenyl)amino)-2-oxoethyl)-5-ethyl-6-(4-(5-hydroxy-6-methylpyrimidine-4-carbonyl)piperazin-1-yl)-7-oxo-4,7-dihydro-[1,2,4]triazolo[1,5-a]pyrimidin-2-yl)-N,N-dimethylacrylamide], the IC50 at recombinant human WRN (read-out: IC50) is 1 to 100 nM. Regarding `CCc1c(N2CCN(C(=O)c3ncccc3O)CC2)c(=O)n2nc(C3=CC4COCC4C3)nc2n1CC(=O)Nc1ccc(S(F)(F)(F)(F)F)cc1` (centres unmarked) [Example 187, 2-(5-ethyl-6-(4-(3-hydroxypicolinoyl)piperazin-1-yl)-7-oxo-2-(3,3a,4,6a-tetrahydro-1H-cyclopenta[c]furan-5-yl)-[1,2,4]triazolo[1,5-a]pyrimidin-4(7H)-yl)-N-(4-(pentafluoro-λ^6-sulfaneyl)phenyl) acetamide], at recombinant human WRN, the IC50 fell in the range of 1 to 100 nM.

As for `CCc1c(N2CCN(C(=O)c3ncnc(C)c3O)CC2)c(=O)n2nc(C3=CC4COCC4C3)nc2n1CC(=O)Nc1ccc(S(F)(F)(F)(F)F)cc1` (centres unmarked) [Example 189, 2-(5-ethyl-6-(4-(5-hydroxy-6-methylpyrimidine-4-carbonyl)piperazin-1-yl)-7-oxo-2-(3,3a,4,6a-tetrahydro-1H-cyclopenta[c]furan-5-yl)-[1,2,4]triazolo[1,5-a]pyrimidin-4(7H)-yl)-N-(4-(pentafluor o-λ^6-sulfaneyl)phenyl)acetamide], the 50% inhibitory concentration (IC50) on recombinant human WRN (read-out: IC50) fell in the range of 1 to 100 nM. Consider `CCO/C=C/c1nc2n(CC(=O)Nc3ccc(C(F)(F)F)cc3Cl)c(CC)c(N3CCN(C(=O)c4ncnc(C)c4O)CC3)c(=O)n2n1` [Example 193, (E)-N-(2-chloro-4-(trifluoromethyl)phenyl)-2-(2-(2-ethoxyvinyl)-5-ethyl-6-(4-(5-hydroxy-6-methylpyrimidine-4-carbonyl)piperazin-1-yl)-7-oxo-[1,2,4]triazolo[1,5-a]pyrimidin-4(7H)-yl)acetamide], for which the IC50 at recombinant human WRN (read-out: IC50) lay in the range of 1 to 100 nM. On the same count and under the same terms, for `CCc1c(N2CCN(C(=O)c3ncnc(C)c3O)CC2)c(=O)n2nc(/C=C/C(=O)N3CCC3)nc2n1CC(=O)Nc1ccc(C(F)(F)F)cc1Cl` [Example 194, (E)-2-(2-(3-(azetidin-1-yl)-3-oxoprop-1-en-1-yl)-5-ethyl-6-(4-(5-hydroxy-6-methylpyrimidine-4-carbonyl)piperazin-1-yl)-7-oxo-[1,2,4]triazolo[1,5-a]pyrimidin-4(7H)-yl)-N-(2-chloro-4-(trifluor omethyl)phenyl)acetamide] the value was 1 to 100 nM; for `CCc1c(N2CCN(C(=O)c3ncnc(C)c3O)CC2)c(=O)n2nc(C3=C[C@@H]4C[C@@H]4C3)nc2n1CC(=O)Nc1ccc(S(F)(F)(F)(F)F)cc1` [Example 195, 2-(2-((1R,5R)-bicyclo[3.1.0]hex-2-en-3-yl)-5-ethyl-6-(4-(5-hydroxy-6-methylpyrimidine-4-carbonyl)piperazin-1-yl)-7-oxo-[1,2,4]triazolo[1,5-a]pyrimidin-4(7H)-yl)-N-(4-(pentafluoro-λ6-sulfaneyl)phenyl)acetamide], 1 to 100 nM. As to `CCc1c(N2CCN(C(=O)c3ncnc(C)c3O)CC2)c(=O)n2nc(C3=C[C@H]4C[C@H]4C3)nc2n1CC(=O)Nc1ccc(S(F)(F)(F)(F)F)cc1` [Example 196, 2-(2-((1S,5S)-bicyclo[3.1.0]hex-2-en-3-yl)-5-ethyl-6-(4-(5-hydroxy-6-methylpyrimidine-4-carbonyl)piperazin-1-yl)-7-oxo-[1,2,4]triazolo[1,5-a]pyrimidin-4(7H)-yl)-N-(4-(pentafluoro-λ6-sulfaneyl)phenyl)acetamide], at recombinant human WRN, the IC50 fell in the range of 1 to 100 nM.

For the origin of these results see EP4800015A1, “AZABICYCLO DERIVATIVE AND PREPARATION METHOD THEREFOR, AND USE” (Zhejiang Hisun Pharmaceutical Co., Ltd., priority 2023, dated 2025).
